According to article PMC8793051 (ACS Omega, 2022):

Assays:
[1] = system: oligo-1: d(CGCGAATTCGCG)2; experiment: Fluorescence titration; type: binding; settings: 20 °C, pH 7.2
[2] = system: oligo-2: d(CGATGTACATCG)2; experiment: Fluorescence titration; type: binding; settings: 20 °C, pH 7.2
[3] = Behaviour of HCl salt in cell culture media; type: physicochemical

SMILES	Ka binding affinity with oligo-1 [1]	Ka binding affinity with oligo-2 [2]	behaviour of HCl salt in cell culture media [3]
CN1CCN(c2ccc3[nH]c(-c4ccc5[nH]c(-c6ccc(C(F)(F)F)cc6)nc5c4)nc3c2)CC1 [10b, 5-(4-Methylpiperazin-1-yl)-2′-(4-(trifluoromethyl)phenyl)-1H,1′H-2,5′-Bibenzo[d]imidazole]	7 × 10^6 M^–1	3 × 10^6 M^1	–
CCOc1ccc(-c2nc3ccc(-c4nc5ccc(N6CCN(C)CC6)cc5[nH]4)cc3[nH]2)cc1 [Hoechst 33342, reference compound]	2 × 10^7 M^–1	5 × 10^6 M^1	–
CCCN1CCN(c2ccc3[nH]c(-c4ccc5[nH]c(-c6cc(OC)c(OC)c(OC)c6)nc5c4)nc3c2)CC1 [11d, 5-(4-Propylpiperazin-1-yl)-2′-(3,4,5-trimethoxyphenyl)-1H,1′H-2,5′-bibenzo[d]imidazole]	–	1 × 10^6 M^1	–
CCCN1CCN(c2ccc3nc(-c4ccc5nc(-c6cc(OC)ccc6OC)[nH]c5c4)[nH]c3c2)CC1 [11c, 2′-(2,5-Dimethoxyphenyl)-6-(4-propylpiperazin-1-yl)-1H,3′H-2,5′-bibenzo[d]imidazole]	7 × 10^6 M^–1	3 × 10^6 M^1	–
CCCCN1CCN(c2ccc3nc(-c4ccc5nc(-c6cc(OC)ccc6OC)[nH]c5c4)[nH]c3c2)CC1 [12c, 6-(4-Butylpiperazin-1-yl)-2′-(2,5-dimethoxyphenyl)-1H,3′H-2,5′-bibenzo[d]imidazole]	–	2 × 10^6 M^1	–
COc1ccc(OC)c(-c2nc3ccc(-c4nc5ccc(N6CCN(C)CC6)cc5[nH]4)cc3[nH]2)c1 [10c, 2′-(2,5-Dimethoxyphenyl)-6-(4-methylpiperazin-1-yl)-1H,3′H-2,5′-bibenzo[d]imidazole]	8 × 10^6 M^–1	2 × 10^6 M^1	–
CCOc1ccc(-c2nc3ccc(-c4nc5ccc(N6CCN(CCN(C)C)CC6)cc5[nH]4)cc3[nH]2)cc1OCC [13a, 2-(4-(2′-(3,4-Diethoxyphenyl)-1H,3′H-[2,5′-bibenzo[d]imidazol]-6-yl)piperazin-1-yl)N,N-dimethylethan-1-amine]	9 × 10^6 M^–1	2 × 10^6 M^1	precipitating in cell culture media
CCCCN1CCN(c2ccc3[nH]c(-c4ccc5[nH]c(-c6cc(OC)c(OC)c(OC)c6)nc5c4)nc3c2)CC1 [12d, 5-(4-Butylpiperazin-1-yl)-2-(2-(3,4,5-trimethoxyphenyl)-1H-benzo[d]imidazol-5-yl)-1H-benzo[d]imidazole]	–	4 × 10^6 M^1	–
COc1ccc(OC)c(-c2nc3ccc(-c4nc5ccc(N6CCN(CCN(C)C)CC6)cc5[nH]4)cc3[nH]2)c1 [13c, 2-(4-(2′-(2,5-Dimethoxyphenyl)-1H,3′H-[2,5′-bibenzo[d]imidazol]-6-yl)piperazin-1-yl)-N,N-dimethylethan-1-amine]	5 × 10^6 M^–1	1 × 10^6 M^1	precipitating in cell culture media
CCOc1ccc(-c2nc3cc(-c4nc5cc(N6CCN(C)CC6)ccc5[nH]4)ccc3[nH]2)cc1OCC [10a, 2-(2-(3,4-Diethoxyphenyl)-1H-benzo[d]imidazol-5-yl)-5-(4-methylpiperazin-1-yl)-1H-benzo[d]imidazole]	7 × 10^6 M^–1	2 × 10^6 M^1	–
CCCCN1CCN(c2ccc3[nH]c(-c4ccc5[nH]c(-c6ccc(OCC)cc6)nc5c4)nc3c2)CC1 [12e, 5-(4-Butylpiperazin-1-yl)-2′-(4-ethoxyphenyl)-1H,1′H-2,5′-bibenzo[d]imidazole]	1 × 10^7 M^–1	3 × 10^6 M^1	–
CCCN1CCN(c2ccc3[nH]c(-c4ccc5[nH]c(-c6ccc(C(F)(F)F)cc6)nc5c4)nc3c2)CC1 [11b, 2-(4-(Trifluoromethyl)phenyl)-5-(5-(4-propylpiperazin-1-yl)-1H-benzo[d]imidazol-2-yl)-1H-benzo[d]imidazole]	7 × 10^6 M^–1	2 × 10^6 M^1	–
COc1cc(-c2nc3ccc(-c4nc5ccc(N6CCN(CCN(C)C)CC6)cc5[nH]4)cc3[nH]2)cc(OC)c1OC [13d, 2-(4-(2′-(3,4,5-Trimethoxyphenyl)-1H,3′H-[2,5′-bibenzo[d]imidazol]-6-yl)piperazin-1-yl) N,N-Dimethylethan-1-amine]	5 × 10^6 M^–1	1 × 10^6 M^1	precipitating in cell culture media
